Source: US20240350485A1 (TARIS Biomedical LLC, priority 2021, published 2024)

Experiments:
[1] = In vitro permeation screening of device materials; assay type: physicochemical; design: key: “O” is permeable (suitable for the stripe material); “A” is practically impermeable; “X” is impermeable (suitable for a base material, i.e., the non-stripe portion of a system body)
Experimental: A number of polymeric materials were tested to determine their suitability as a material of construction of an elastic system body for release of various erdafitinib formulations in a permeation-controlled release system. The materials included silicone, several thermoplastic polyurethane (TPUs) manufactured by Lubrizol Life Science (Bethlehem, PA).
In general, materials that are impermeable to erdafitinib, the API, are suitable for use as the base material in permeation systems. Materials that are permeable to the API are suitable for use as the stripe material in permeation systems. Platinum cured silicone, thermoplastic polyurethanes (TPUs), and ethylene vinyl acetate (EVA) materials were screened (Table 10). The test articles were filled with formulated API (powder or tablets), sealed, placed in foil pouches, and gamma irradiated (nominal 35 kGy). The systems were placed into simulated urine (pH 6.8), stored at 37° C., and sampled periodically. The amount of API in each sample was determined by high-performance liquid chromatography (HPLC) analysis.

[2] = In vitro release of prototype permeation systems in simulated urine (Table 5); assay type: physicochemical; conditions: simulated urine at various pHs
Stability in human urine = assay type: in vitro ADME; conditions: freshly collected human urine, 37° C.
Experimental: (§1) At the end of 6-hours post-dialysis incubation, drug was analyzed and the recovery was calculated against the spiked concentrations.

[3] = Stability in minipig urine; assay type: in vitro ADME; conditions: freshly collected minipig urine, 37° C.
Experimental: as §1

Stability in rat urine = assay type: in vitro ADME; conditions: freshly collected rat urine, 37° C.
Experimental: as §1

[4] = In vitro protein binding in rat urine; assay type: in vitro ADME
Experimental: (§2) Albuminuria/proteinuria had minimal effect on % free form in urine.
as §1

[5] = In vitro protein binding in minipig urine; assay type: in vitro ADME
Experimental: as §2, §1

[6] = In vitro protein binding in human urine; assay type: in vitro ADME
Experimental: as §2, §1

ERK1/2 phosphorylation = assay: pERK/ERK in orthotopic bladder UM-UC-1 tumors by capillary immunoblotting; assay type: in vivo, nude rats
Excerpt: The signals for pERK1/2 were divided by the total ERK1/2 signal in the same sample and the mean of the pERK1/2 values for the corresponding vehicle-treated samples was set at a relative value of 1. At each timepoint, the pERK/ERK ratio for each tumor sample was divided by the mean pERK/ERK ratio derived from the corresponding control samples. There was 1 exception, as there were no vehicle-treated samples at the 120-hour timepoint, the pERK/ERK ratios for the erdafitinib-treated samples at the 120-hour timepoint were divided by the mean of the 48-hour vehicle-treated group.

[7] = test system: orthotopic UM-UC-1 bladder tumors; assay: Continuous bladder perfusion, orthotopic UM-UC-1 bladder cancer model
Experimental: Perfusion studies: The bladders of the study animals were cannulated on Day 1 and the animals were allowed to recover for 3 days. On Day 5, UM-UC-1 cells (2×10^6 cells) were injected into the lateral wall of each bladder. […] Based on the in vitro results, target urine concentrations of 0.5, 1.0, and 5.0 μg/mL were used in the perfusion experiments. Body weight, daily urine production, and daily water consumption were recorded. At necropsy, a plasma sample, bladder photographs, and bladder weight measurements were recorded.
The percent reduction in relative tumor weight between the control group and the drug perfusion groups was determined as an initial measure of efficacy. Bladder tissue and tumor samples were also submitted for analysis of FGFR signaling activity by determining the phosphorylated fibroblast growth factor receptor substrate (FRS)2a levels and the pERK to ERK ratio.

[8] = test system: orthotopic RT-112 bladder tumor; assay: Continuous bladder perfusion, RT-112 implanted into the bladder wall
Excerpt: Perfusion studies: The experimental study design was the same as described in Example 11 (FIG. 12), except that the perfusions were continued until the time of necropsy on Day 14.

[9] = Solubility as a function of pH; assay type: physicochemical; conditions: normal urine pH range of 5.5 to 7
[10] = In vitro release (IVR) of permeation prototypes in simulated urine; assay type: physicochemical; conditions: highest release rates at pH 5, significantly reduced at pH 8
Experimental: The drug formats evaluated included erdafitinib free base, erdafitinib free base plus HP-β-CD and erdafitinib salts, e.g. HCl salt.
The pH range for normal human urine is in the 5.5 to 7 range, but some disease states can result in higher urine pH values (pH 8). […] The base material for this tubing could be either AR-75A-B20 or AC-4075A-B20.
Drug and device constituents are described in Tables 11 and 12, respectively. In vitro release (IVR) testing was performed with both prototypes, using simulated urine at 3 different pH ranges as the release media: pH 5, 6.8, and 8 (n=3 systems tested in each media).

[11] = rats dosed orally, 2 and 7 hours
Experimental: Extracellular signal-regulated kinase (ERK)1/2 phosphorylation was assessed as a PD marker for FGFR kinase inhibition in tumors at various time points post administration/installation.

[12] = rat, in vivo
Excerpt: (§3) Rat bladders (5 groups of rats, n=3/group) were surgically catheterized under anesthesia and the catheter was externalized, tunneled subcutaneously, and connected to a vascular access harness (VAH) in the neck. […] Plasma and bladder samples were collected at all time points.

[13] = urine
Excerpt: On Day −7 a catheter was surgically placed in the bladder of each animal. The distal end of the catheter was anchored to a subcutaneous site and attached to a vascular access port (VAP). The port was secured and the animals were allowed to recover. Each animal was subsequently fitted with a portable infusion pump that was attached to the bladder catheter via the VAP. […] All excreted urine was collected in 24-hour intervals through Day 6 or 8. Blood samples were collected daily on study Days 1 to 8. Bladder tissue samples were collected from each animal at necropsy.

in vivo = conditions: female, Sprague-Dawley, rat
Excerpt: as §3

in vitro [14] = conditions: minipig, bladder tissue
in vitro [15] = conditions: rat, bladder tissue
in vitro [16] = conditions: human, bladder tissue
in vitro [17] = conditions: bladder tumor tissue

For COc1cc(OC)cc(N(CCNC(C)C)c2ccc3ncc(-c4cnn(C)c4)nc3c2)c1 [Erdafitinib, N-(3,5-dimethoxyphenyl)-N′-(1-methylethyl)-N-[3-(1-methyl-1H-pyrazol-4-yl)quinoxalin-6-yl]ethane-1,2-diamine], which “In Vitro Permeation” value ([1]; material EVA (CoTran 9712)) is on record?
The value was “Δ”.

And the “In Vitro Permeation” value ([1]; material Silicone (MED-4750))?
Its value is “X”.

What about the “In Vitro Permeation” value ([1]; material TPU (AC-4075A)) of the same molecule?
The value was “X”.

And the “In Vitro Permeation” value ([1]; material TPU (AR-62A))?
Its value is “X”.

What about the “In Vitro Permeation” value ([1]; material TPU (EG-80A)) of the same molecule?
Its value is “Δ”.

And the “In Vitro Permeation” value ([1]; material TPU (HP-60D-35))?
The value was “◯”.

What about the “In Vitro Permeation” value ([1]; material TPU (HP-93A-100)) of the same molecule?
Its value is “◯”.

What about the “In Vitro Permeation” value ([1]; material TPU (PC-3575A)) of the same molecule?
The value was “X”.

And the “In Vitro Permeation” value ([1]; material TPU (TT-1074A))?
The value was “X”.

And the “Observations (release profile)” value ([2]; device AR-62A base with HP-60D-35 stripe)?
The value was “Release profile shows more pH”.

And the “Observations (release profile)” value ([2]; device EG-80A base with HP-60D-35 stripe)?
The value was “Release profile shows more pH”.

And the stability in urine (Stability in human urine; 6 hours)?
Its stability in urine is “sufficiently stable”.

What about the recovery at 6 h (Stability in human urine; human urine spiked at 1, 3, and 5 μg/mL) of the same molecule?
The recovery at 6 h was 89 to 98%.

And the stability in urine ([3]; 6 hours)?
The stability in urine was “sufficiently stable”.

And the recovery at 6 h ([3]; minipig urine spiked at 1, 3, and 5 μg/mL)?
Its recovery at 6 h is 92 to 93%.

And the stability in urine (Stability in rat urine; 6 hours)?
Its stability in urine is “sufficiently stable”.

What about the recovery at 6 h (Stability in rat urine; rat urine spiked at 1, 3, and 5 μg/mL) of the same molecule?
Its recovery at 6 h is 90 to 95%.

What about the “Percent erdafitinib free in urine” value [4] of the same molecule?
The value was 84%.

And the “Percent erdafitinib free in urine” value [5]?
The value was 97%.

What about the “Percent erdafitinib free in urine” value [6] of the same molecule?
The value was 95%.

What about the “ERK1/2 phosphorylation in UM-UC-1 tumors” value (ERK1/2 phosphorylation; 6 mg/kg intravesical and 20 mg/kg oral doses, 2 hours post dosing) of the same molecule?
Its value is “statistically significant decrease”.

And the pERK/ERK (ERK1/2 phosphorylation; 2 hours post dose, IVES, 6 mg/kg, relative to vehicle group)?
Its pERK/ERK is 0.62.

What about the pERK/ERK (ERK1/2 phosphorylation; 2 hours post dose, p.o., 20 mg/kg, relative to vehicle group) of the same molecule?
Its pERK/ERK is 0.52.

What about the pERK/ERK (ERK1/2 phosphorylation; 7 hours post dose, IVES, 6 mg/kg, relative to vehicle group) of the same molecule?
The pERK/ERK was 0.60.

What about the pERK/ERK (ERK1/2 phosphorylation; 7 hours post dose, p.o., 20 mg/kg, relative to vehicle group) of the same molecule?
Its pERK/ERK is 0.61.

And the pERK/ERK (ERK1/2 phosphorylation; 48 hours post dose, IVES, 6 mg/kg, relative to vehicle group)?
The pERK/ERK was 0.71.

And the pERK/ERK (ERK1/2 phosphorylation; 48 hours post dose, p.o., 20 mg/kg, relative to vehicle group)?
The pERK/ERK was 0.76.

What about the pERK/ERK (ERK1/2 phosphorylation; 120 hours post dose, IVES, 6 mg/kg, relative to 48-hour vehicle group) of the same molecule?
Its pERK/ERK is 0.98.

And the pERK/ERK (ERK1/2 phosphorylation; 120 hours post dose, p.o., 20 mg/kg, relative to 48-hour vehicle group)?
Its pERK/ERK is 1.22.

What about the “percentage change in body weight vs vehicle control” value ([7]; 0.5, 1.0, and 5.0 μg/mL treatment groups) of the same molecule?
Its value is “Statistically non-significant difference”.

What about the “bladder weight vs vehicle control” value ([7]; 0.5, 1.0 and 5 μg/mL nominal urine concentrations) of the same molecule?
The value was “significant dose-related decrease”.

What about the cage side observations ([7]; all treatment groups) of the same molecule?
Its cage side observations is “no visible signs of abnormal behavior or clinical symptoms”.

And the “bladder weight vs vehicle control” value ([8]; 1.0 μg/mL perfusate concentration)?
Its value is “significant bladder weight reduction”.

And the “bladder weight decrease vs vehicle control” value ([8]; 0.25 and 0.5 μg/mL dose groups)?
Its value is “not statistically significant”.

What about the “percentage change in body weight vs vehicle control” value ([8]; 0.5, 1.0, and 5.0 μg/mL treatment groups, except Group 4 on Day 11) of the same molecule?
The value was “Statistically non-significant difference”.

What about the “body weight loss, maximum mean values” ([8]; erdafitinib-treated group, Day 11) of the same molecule?
Its value is “up to −3%”.

What about the solubility [9] of the same molecule?
Its solubility is “significant pH-dependent solubility”.

And the “pH dependency of release by drug format” value [10]?
Its value is “significant pH dependency”.

What about the “exposure levels in s.c. tumors lower than in orthotopic tumors” value [11] of the same molecule?
Its value is “Roughly 2 fold”.

And the C96 h [12]?
Its C96 h is “BQL”.

And the C120 h [12]?
Its C120 h is “BQL”.

What about the “Daily erdafitinib recoveries, of average daily amount administered” value [13] of the same molecule?
The value was 15.7%.

And the concentration at 96 h (in vivo; C96 h)?
The concentration at 96 h was 56.9 ng/mL.

And the concentration at 120 h (in vivo; C120 h)?
The concentration at 120 h was 10.7 ng/mL.

What about the fraction unbound (in vitro [14]) of the same molecule?
The fraction unbound was 0.79.

And the fraction unbound (in vitro [15])?
The fraction unbound was 0.33.

What about the fraction unbound (in vitro [16]) of the same molecule?
Its fraction unbound is 0.39.

And the fraction unbound (in vitro [17])?
Its fraction unbound is 0.4.
